Results on 24 compounds are retold here after patent publication US4414219A, “Antidepressant (α-phenyl-2-tolyl)azacycloalkanols and derivatives thereof” (American Hoechst Corporation, priority 1980, dated 1983).

Where a name gives a salt, the structure may show the parent alone. Read-outs that look alike come from different tables or passages of the source. A value given as a limit tells only on which side of the number the result lay.

Broadly, the ED50 is the dose at which the effect has come halfway, by size or by number of responders.

Common to all, as to type: in vivo
Assay [1] has as its system toxicity of amphetamine. The assay is described as follows: Amphetamine Aggregation Toxicity Reversal Assay (tranquilizer). As to conditions: 20 mg/kg oral; against 15 mg/kg intraperitoneal amphetamine sulfate; aggregated mice, survival up to 3 hours. The text has this: Compounds of the invention are still further useful as tranquilizers due to their ability to reverse toxicity of amphetamine as measured in the Amphetamine Aggregation Toxicity Reversal Assay [Chance, M. R. A., J. Pharmacol. Exper. Therap. 87, pp. 214-219 (1946) and Proctor, C. D., Putts, J. T., Lundy, R. O., and Greenfield, E. J., Arch. Int. Pharmacodynam. 163, (1), pp. 79-86 (1966)]. In our assay "aggregated mice" mean 5 mice/group placed in such a manner as to yield 20 cm^2 of floor space per mouse. Animals are aggregated immediately after injection with amphetamine sulfate and then checked for survival up to 3 hours. For example, under these conditions an oral dosage of 20 mg/kg of body weight of 1-[3-(4-fluorobenzoyl)propyl]-4-(α-phenyl-2-tolyl)piperidine effects a 60% protection against the intraperitoneal dose of 15 mg/kg of amphetamine sulfate.

Assay [2] has as its system supra maximal electro shock (SES). In words: protection from supra maximal electro shock (SES), anticonvulsant. The protocol:
Compounds of the present invention are further useful as anticonvulsant agents for mammals, as determined by the method of Woodbury, L. A. and Davenport, V. D., in Arch, Int. Pharmacodynam, Vol. 92, (1952) at pages 97-107. For example, the intraperitoneal dose of 17.6 mg/kg of body weight of 1-methyl-4-[-(4,fluorophenyl)-2-tolyl]-1,2,3,6-tetrahydropyridine hydrobromide produces an 83% protection from the effect of supra maximal electro shock (SES). Intraperitoneal doses of other representative compounds of the invention and their ability to protect from the effect of SES is shown below in Table IV.

The test system of assay [3] is tetrabenazine-induced ptosis. In words: inhibition of tetrabenazine-induced ptosis in mice (antidepressant assay). The following applies: Mus musculus, ip, read-out: ED50 (50% inhibition from the ptosis of tetrabenazine-induced depression). The text has this: Thus, for instance, the intraperitoneal dosages at which the following compounds (ED50) effect a 50% inhibition from the ptosis of tetrabenazine-induced depression in mice are:
It is to be noted and stressed at this point that the substitution of a benzyl in the 2- or ortho position of the phenyl ring, in the compounds of the invention, is critical to biological especially antidepressant, activity. Where the benzyl is substituted in the 3- or meta position or the 4- or para position, the corresponding compound is relatively ineffective as compared to the 2-substituted compounds of the invention. In this regard, reference is made to the following Table II which illustrates such criticality in the form of intraperitoneal dosages at which a series (A. B. and C.) of 2-, 3- and 4-substituted compounds effect a 50% inhibition from the ptosis of tetrabenazine-induced depression in mice: […]

For assay [4], the system named is 2-phenyl-1,4-quinone induced writhing. The assay is described as follows: 2-phenyl-1,4-quinone induced writhing assay in mice (analgesia). As to conditions: for inhibition of writhing: 60 mg/kg p.o., comparison. Here is the method: Compounds of the invention are also useful as analgesic agents due to their ability to alleviate pain in mammals. […] Exptl. Biol. Med., 95, 729 (1957)]. Thus, for example, a 50% inhibition in writhing is effected by the oral administration of 28.4 mg/kg of body weight of 4-acetoxy-1-methyl-4-(α-phenyl)-2-tolyl)piperidine hydrochloride. Other representative compounds of the invention and their respective ability to inhibit said writhing is shown below in Table III.
On the technique in general: In writhing tests, fewer writhes than in controls are read as antinociception.

Assay [5] relates to tetrabenazine-induced ptosis. In words: inhibition of tetrabenazine-induced ptosis in mice (antidepressant assay). The following applies: 25 mg/kg intraperitoneal.
Setting [6] is: intraperitoneal, mice, Table II (2-, 3- and 4-substituted series A, B, C).

`O=C(CCCN1CCC(c2ccccc2Cc2ccccc2)CC1)c1ccc(F)cc1` [1-[3-(4-fluorobenzoyl)propyl]-4-(α-phenyl-2-tolyl)piperidine]: in assay [1], the “protection against amphetamine sulfate toxicity” value came out at 60%.

`Cl.OC1(c2ccccc2Cc2ccccc2)CCN(Cc2ccccc2)C1` (stereo not drawn) [1-benzyl-3-(α-phenyl-2-tolyl)-3-pyrrolidinol hydrochloride]: in assay [2] (50 mg/kg intraperitoneal), the “% SES Protection” value was 83%.

In the case of `ON1CCC(c2ccccc2Cc2ccccc2)CC1` [1-hydroxy-4-(α-phenyl-2-tolyl)piperidine], in assay [3] (intraperitoneal, mice, Table I), the ED50 worked out at 3 mg/kg.

On to `CN1CC=C(c2ccccc2Cc2ccccc2)CC1` [1-methyl-4-(α-phenyl-2-tolyl)-1,2,3,6-tetrahydropyridine], for which the ED50 in assay [3] was 8.8 mg/kg.

As to `CN1CCC(O)(c2ccccc2Cc2ccccc2)CC1` [1-methyl-4-(α-phenyl-2-tolyl)-4-piperidinol], the ED50 in assay [3] is 8 mg/kg. The “% Inhibition in Writhing” value in assay [4] (50.0 mg/kg po, mice) is 41%. Besides, the “% SES Protection” value in assay [2] (36 mg/kg intraperitoneal) was 50%.

Regarding `CCC(=O)OC1(c2ccccc2Cc2ccccc2)CCN(C)CC1.Cl` [1-methyl-4-(α-phenyl-2-tolyl)-4-propionyloxypiperidine hydrochloride], the “% Inhibition in Writhing” value in assay [4] (8.9 mg/kg sc, mice) was 50%. In addition, in assay [2] (50 mg/kg intraperitoneal), the “% SES Protection” value is recorded as 50%.

Regarding `CN1CCC(c2ccccc2Cc2ccccc2)CC1.Cl` [1-methyl-4-(α-phenyl-2-tolyl)piperidine hydrochloride], the ED50 in assay [3] (setting [6]) worked out at 2.5 mg/kg. Besides, the “% Inhibition in Writhing” value in assay [4] (61.7 mg/kg po, mice) was 50%. Further, the “% SES Protection” value in assay [2] (50 mg/kg intraperitoneal) turned out to be 83%.

As for `CN1CC=C(c2cccc(Cc3ccccc3)c2)CC1` [1-methyl-4-(α-phenyl-3-tolyl)-1,2,3,6-tetrahydropyridine, reference compound], the ED50 in assay [3] was greater than 50 mg/kg.

In the case of `CN1CCC(c2cccc(Cc3ccccc3)c2)CC1.O=C(O)C(=O)O` [1-methyl-4-(α-phenyl-3-tolyl)piperidine oxalate, reference compound], the ED50 in assay [3] (setting [6]) is greater than 20 mg/kg.

In the case of `CN1CC=C(c2ccc(Cc3ccccc3)cc2)CC1` [1-methyl-4-(α-phenyl-4-tolyl)-1,2,3,6-tetrahydropyridine, reference compound], in assay [3], the ED50 was greater than 50 mg/kg.

`CN1CCC(c2ccc(Cc3ccccc3)cc2)CC1.O=C(O)C(=O)O` [1-methyl-4-(α-phenyl-4-tolyl)piperidine oxalate, reference compound]: the ED50 in assay [3] (setting [6]) is greater than 20 mg/kg.

Take `CN1CCC(O)(c2ccccc2Cc2ccc(F)cc2)CC1` [1-methyl-4-[α-(4-fluorophenyl)-2-tolyl]-4-piperidinol]: in assay [3], the ED50 was 8.2 mg/kg. Further, in assay [2] (23.3 mg/kg intraperitoneal), the “% SES Protection” value stood at 50%.

As to `Br.COc1ccc(Cc2ccccc2C2=CCN(C)CC2)cc1` [1-methyl-4-[α-(4-methoxyphenyl)-2-tolyl]-1,2,3,6-tetrahydropyridine hydrobromide], the “% SES Protection” value in assay [2] (25.6 mg/kg intraperitoneal) stood at 50%.

On to `Br.c1ccc(CCN2CCC(c3ccccc3Cc3ccccc3)CC2)cc1` [1-phenethyl-4-(α-phenyl-2-tolyl)piperidine hydrobromide], for which the “% SES Protection” value in assay [2] (37.5 mg/kg intraperitoneal) came out at 50%.

As for `C1=C(c2ccccc2Cc2ccccc2)CCNC1` [4-(α-phenyl-2-tolyl)-1,2,3,6-tetrahydropyridine], the ED50 in assay [3] turned out to be 2.1 mg/kg. Also, the “% Inhibition in Writhing” value in assay [4] (7.8 mg/kg sc, mice) was found to be 50%.

As to `Cl.OC1(c2ccccc2Cc2ccccc2)CCNCC1` [4-(α-phenyl-2-tolyl)-4-piperidinol hydrochloride], the ED50 in assay [3] (intraperitoneal, mice, Table I) came to 5.4 mg/kg.

`Cl.c1ccc(Cc2ccccc2C2CCNCC2)cc1` [4-(α-phenyl-2-tolyl)piperidine hydrochloride]: the ED50 in assay [3] (setting [6]) came out at 1.7 mg/kg.

Turning to `Cl.c1ccc(Cc2cccc(C3CCNCC3)c2)cc1` [4-(α-phenyl-3-tolyl)piperidine hydrochloride, reference compound], the ED50 in assay [3] (setting [6]) was greater than 20 mg/kg.

Take `Cl.c1ccc(Cc2ccc(C3CCNCC3)cc2)cc1` [4-(α-phenyl-4-tolyl)piperidine hydrochloride, reference compound]: the ED50 in assay [3] (setting [6]) is greater than 20 mg/kg.

Turning to `Br.CN1CC=C(c2ccccc2Cc2ccc(F)cc2)CC1` [4-[α-(4-fluorophenyl)-2-tolyl]-1-methyl-1,2,3,6-tetrahydropyridine hydrobromide], the ED50 in assay [3] was 8 mg/kg. In addition, the “protection from the effect of supra maximal electro shock (SES)” value in assay [2] (17.6 mg/kg intraperitoneal) is listed as 83%.

Consider `CC(=O)OC1(c2ccccc2Cc2ccccc2)CCN(C)CC1.Cl` [4-acetoxy-1-methyl-4-(α-phenyl-2-tolyl)piperidine hydrochloride], for which the inhibition in writhing in assay [4] (28.4 mg/kg oral, mice) came to 50%. Besides, the “inhibition from the ptosis of tetrabenazine-induced depression” value in assay [5] is recorded as 40%.

Take `CN1CCC(OC(=O)c2ccccc2)(c2ccccc2Cc2ccccc2)CC1.Cl` [4-benzoyloxy-1-methyl-4-(α-phenyl-2-tolyl)piperidine hydrochloride]: the “% Inhibition in Writhing” value in assay [4] (12.8 mg/kg sc, mice) came out at 50%.

With `CC(=O)Oc1ccccc1C(=O)O` [aspirin, reference compound], in assay [4], the inhibition of writhing amounted to 34%.

Compound `CCC(=O)O[C@](Cc1ccccc1)(c1ccccc1)[C@H](C)CN(C)C` [propoxyphene hydrochloride, reference compound] showed an inhibition of writhing in assay [4] of 50%.
